Reference: ChEMBL document CHEMBL5390210, “Discovery of novel indazole derivatives as SOS1 agonists that activate KRAS signaling” (Bioorg Med Chem, 2023)
Calls of active or inactive are those of the source. The rule behind the calls is not given here.

How the values were obtained:
[1] = target: T1, Son of sevenless homolog 1 (Homo sapiens, UniProt Q07889); experiment: Agonist activity at SOS1 in human HeLa cells expressing wild type KRAS assessed as increase in p-ERK level incubated for 30 mins by Western blot analysis; assay type: cell-based
T1 sequence (Q07889 whole entry): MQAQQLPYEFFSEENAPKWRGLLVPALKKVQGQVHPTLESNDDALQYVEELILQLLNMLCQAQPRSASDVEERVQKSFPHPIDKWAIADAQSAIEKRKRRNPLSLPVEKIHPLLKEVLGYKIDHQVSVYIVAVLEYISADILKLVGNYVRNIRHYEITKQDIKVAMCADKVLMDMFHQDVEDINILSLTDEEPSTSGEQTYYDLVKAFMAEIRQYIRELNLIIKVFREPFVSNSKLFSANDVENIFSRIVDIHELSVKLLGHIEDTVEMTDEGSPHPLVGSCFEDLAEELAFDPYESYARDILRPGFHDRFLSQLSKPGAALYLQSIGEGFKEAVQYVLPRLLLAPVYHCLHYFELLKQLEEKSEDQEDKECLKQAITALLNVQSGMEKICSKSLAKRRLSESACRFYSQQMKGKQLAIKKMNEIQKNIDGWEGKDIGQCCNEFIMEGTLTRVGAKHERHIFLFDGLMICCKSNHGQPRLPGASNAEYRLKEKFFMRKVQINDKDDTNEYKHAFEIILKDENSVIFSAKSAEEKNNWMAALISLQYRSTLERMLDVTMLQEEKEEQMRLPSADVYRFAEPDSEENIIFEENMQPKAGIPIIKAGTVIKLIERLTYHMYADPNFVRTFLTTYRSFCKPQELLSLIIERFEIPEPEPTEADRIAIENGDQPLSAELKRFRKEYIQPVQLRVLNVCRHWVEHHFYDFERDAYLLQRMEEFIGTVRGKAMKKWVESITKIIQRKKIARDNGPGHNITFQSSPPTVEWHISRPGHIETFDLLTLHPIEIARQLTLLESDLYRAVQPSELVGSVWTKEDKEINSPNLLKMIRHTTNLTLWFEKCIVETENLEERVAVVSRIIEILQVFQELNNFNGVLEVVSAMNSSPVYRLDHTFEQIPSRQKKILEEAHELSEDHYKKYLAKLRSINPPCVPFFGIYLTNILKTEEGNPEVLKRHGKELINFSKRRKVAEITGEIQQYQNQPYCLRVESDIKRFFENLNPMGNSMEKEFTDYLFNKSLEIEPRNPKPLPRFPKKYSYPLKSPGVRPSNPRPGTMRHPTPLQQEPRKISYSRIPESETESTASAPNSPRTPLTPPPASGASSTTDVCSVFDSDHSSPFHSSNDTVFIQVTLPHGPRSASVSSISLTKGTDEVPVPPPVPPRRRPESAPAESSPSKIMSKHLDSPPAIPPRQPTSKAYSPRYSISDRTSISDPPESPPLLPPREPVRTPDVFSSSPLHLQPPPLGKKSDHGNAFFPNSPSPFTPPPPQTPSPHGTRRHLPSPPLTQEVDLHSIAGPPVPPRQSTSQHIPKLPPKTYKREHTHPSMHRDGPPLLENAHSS

[2] = tested on: NCI-H358; experiment: Activation of RAS signaling pathway in human NCI-H358 cells expressing KRAS G12C mutant assessed as upregulation of p-ERK level incubated for 4 hrs by Western blot analysis; assay type: cell-based; conditions: filed as activator, dose 0-20 µM
[3] = tested on: HeLa; experiment: Antiproliferative activity against human HeLa cells expressing wild type KRAS assessed as inhibition of cell growth incubated for 72 hrs by CCK-8 assay; assay type: functional, cell-based
[4] = tested on: NCI-H358; experiment: Antiproliferative activity against human NCI-H358 cells expressing KRAS G12C mutant assessed as inhibition of cell growth incubated for 72 hrs by CCK-8 assay; assay type: functional, cell-based; conditions: NCI-H358, 72 h
[5] = tested on: A549; experiment: Antiproliferative activity against human A549 cells expressing KRAS G12S mutant assessed as inhibition of cell growth incubated for 72 hrs by CCK-8 assay; assay type: functional, cell-based; conditions: A549, 72 h
[6] = target: T2, Son of sevenless homolog 1 (Homo sapiens) (UniProt Q07889); experiment: Binding affinity to SOS1 in human HeLa cells expressing wild type KRAS assessed as increase in thermal stability at 37 to 52 degreeC at 10 uM incubated for 1 hr by CETSA; assay type: cell-based
T2 sequence (whole entry): T1 sequence (Q07889 whole entry)

[7] = target: T2, Son of sevenless homolog 1 (Homo sapiens); experiment: Binding affinity to SOS1 in human NCI-H358 cells expressing KRAS G12C mutant assessed as increase in thermal stability at 37 to 52 degreeC at 10 uM incubated for 1 hr by CETSA; assay type: cell-based
[8] = tested on: HeLa; experiment: Binding affinity to Pan-Ras GTPase in human HeLa cells expressing wild type KRAS assessed as increase in thermal stability at 37 to 60 degreeC at 10 uM incubated for 1 hr by CETSA; assay type: cell-based
[9] = tested on: NCI-H358; experiment: Binding affinity to Pan-Ras GTPase in human NCI-H358 cells expressing KRAS G12C mutant assessed as increase in thermal stability at 37 to 60 degreeC at 10 uM incubated for 1 hr by CETSA; assay type: cell-based
[10] = target: T2, Son of sevenless homolog 1 (Homo sapiens); experiment: Agonist activity at SOS1 in human HeLa cells with siRNA-mediated SOS1 knockdown assessed as activation of p-ERK1/2 at <25 uM incubated for 30 mins by immunoblot analysis; assay type: cell-based
[11] = target: T2, Son of sevenless homolog 1 (Homo sapiens); experiment: Agonist activity at SOS1 in human HeLa cells assessed as activation of p-ERK1/2 at 3.1 to 25 uM incubated for 30 mins by immunoblot analysis; assay type: cell-based; conditions: filed as agonist, dose 3.1-25 µM
[12] = target: T2, Son of sevenless homolog 1 (Homo sapiens); experiment: Agonist activity at SOS1 in human HeLa cells expressing wild type KRAS assessed as increase in ERK1/2 phosphorylation by measuring increase in RAS-GTP level incubated for 30 mins by Western blot based pull down assay; assay type: cell-based; conditions: filed as agonist, dose 0-25 µM
[13] = target: T2, Son of sevenless homolog 1 (Homo sapiens); experiment: Agonist activity at SOS1 in human HeLa cells expressing wild type KRAS assessed as increase in p-ERK1/2 level at T202/Y204 residue at 0 to 12.5 uM incubated for 30 mins by Western blot analysis; assay type: cell-based; conditions: filed as agonist, dose 0-12.5 µM
[14] = target: T2, Son of sevenless homolog 1 (Homo sapiens); experiment: Agonist activity at SOS1 in human HeLa cells expressing wild type KRAS assessed as increase in p-ERK1/2 level at T202/Y204 residue over 25 uM incubated for 30 mins by Western blot analysis; assay type: cell-based

Row | Compound | EC50 [1] | other results
1 | Cn1ncc2cc(NC(=O)c3nn(C4CC5(CNC5)C4)c4ccc(-c5cn[nH]c5)cc34)ccc21 | > 20 µM | 
2 | C=CC(=O)N1CC2(CC(n3nc(C(=O)N4CCc5cc(OC)ccc5C4)c4ccccc43)C2)C1 | > 20 µM | 
3 | C=CC(=O)N1CC2(CC(n3nc(C(=O)N4CCCc5cc(OC)ccc54)c4ccccc43)C2)C1 | > 20 µM | 
4 | C=CC(=O)N1CC2(CC(n3nc(C(=O)Nc4ccc5c(cnn5C)c4)c4ccccc43)C2)C1 | > 20 µM | 
5 | C=CC(=O)N1CC2(CC(n3nc(C(=O)Nc4ccc5[nH]ncc5c4)c4cc(-c5cn[nH]c5)ccc43)C2)C1 | > 20 µM | 
6 | Cn1ncc2cc(-c3nn(C4CC5(CNC5)C4)c4ccc(-c5cn[nH]c5)cc34)ccc21 | > 20 µM | 

Continued, in another order:

Row | EC50 [1] | Compound | other results
7 | 14.2 µM | C=CC(=O)N1CC2(CC(n3nc(-c4ccc5c(cnn5C)c4)c4cc(-c5c[nH]nc5C)c(Cl)cc43)C2)C1 | Activity [2]: Dose-Dependent Effect
8 | > 20 µM | Cn1cc(-c2ccc3c(c2)c(-c2ccc4c(cnn4C)c2)nn3C2CC3(CNC3)C2)cn1 | 
9 | 5.45 µM | C=CC(=O)N1CC2(CC(n3nc(C(=O)Nc4ccc5cnn(C)c5c4)c4cc(-c5cn[nH]c5)ccc43)C2)C1 | 
10 | > 20 µM | C=CC(=O)N1CC2(CC(n3nc(C(=O)Nc4ccc5[nH]ncc5c4)c4ccccc43)C2)C1 | 
11 | 4.37 µM | CCC(=O)N1CC2(CC(n3nc(C(=O)Nc4ccc5c(cnn5C)c4)c4cc(-c5cn[nH]c5)ccc43)C2)C1 | 
12 | 1.53 µM | C=CC(=O)N1CC2(CC(n3nc(C(=O)Nc4ccc5c(cnn5C)c4)c4cc(-c5cn[nH]c5)ccc43)C2)C1 | IC50 [3]: 9.19 µM; IC50 [4]: 6.04 µM; IC50 [5]: 9.61 µM; Activity [6]: Active; Activity [7]: Active; Activity [8]: inactive; Activity [9]: inactive; Activity [10]: inactive; Activity [11]: Active; Activity [12]: Active; Activity [13]: Active; Activity [14]: inactive
13 | 9.01 µM | C=CC(=O)N1CC2(CC(n3nc(-c4ccc5c(cnn5C)c4)c4cc(-c5cn[nH]c5)ccc43)C2)C1 | 
